Data taken from US20050123593A1, “Liposomal encapsulation of glycosaminoglycans for the treatment of arthritic joints” (priority 2001, published 2005).

Tests used:
[1] = test system: osteoarthritic pain; conditions: intra-articular injection; cited from earlier work
[2] = in vivo; cited from earlier work
[3] = Freeze fracture microscopy (FF-TEM) of the compositions; type: physicochemical; conditions: freeze-fracture transmission electron microscope
Experimental: The compositions were subsequently examined using a freeze-fracture transmission electron microscope (FF-TEM). FF-TEM samples of each formulation were prepared in accordance with techniques described in chapter 5 of “Low Temperature Microscopy and Analysis” by Patrick Echlin (1992). The sample was mounted between thin metal sheets and rapidly cooled with liquid propane to −196° C. The sample was then transferred under liquid nitrogen to a pre-cooled cold stage of a Balzers BAF-301 high vacuum freeze-etch unit (Techno Trade International, Lichtenstein). The sample was fractured at low temperature and etched at −150° C. to remove a surface layer of water. The fracture faces were shadowed at an angle of 45° with platinum to create selective electron contrast. A thin layer of carbon was deposited over the entire fracture surface to create a continuous replica. The replicas were then examined using a JEOL 100CX2 electron microscope (Japanese Electronic Optical Laboratories, Japan).

Compound | pain relief [1] | overall turnover rate t1/2 [2] | Structures seen by FF-TEM [3]
CCCCCCCCCCCCCCCC(=O)OC[C@H](COP(=O)([O-])OCC[N+](C)(C)C)OC(=O)CCCCCCCCCCCCCCC [DPPC, 1,2-dipalmitoyl-sn-glycero-3-phosphocholine] | reduce osteoarthritic pain | – | –
Hyaluronic acid | – | 0.5 to a few | presence of string like structures
